Test results reported in ChEMBL document CHEMBL3045413, “Occurrence of zearalenone-4-beta-D-glucopyranoside in wheat” (J Agric Food Chem, 2002).

Key:
Type in all cases: ADME, organism-based
Triticum aestivum [1] = experiment: Drug level in Bavarian Triticum aestivum (wheat) at 10 to 100 ug/kg after 1 day by LC-MS analysis; settings: in vivo, 24 h
Triticum aestivum [2] = experiment: Drug recovery in BavarianTriticum aestivum (wheat) samples at 10 ug/kg after 1 day by LC-MS analysis; settings: in vivo, 0.01 mg/kg, 24 h
Triticum aestivum [3] = experiment: Drug recovery in Bavarian Triticum aestivum (wheat) samples at 100 ug/kg after 1 day by LC-MS analysis; settings: in vivo, 0.1 mg/kg, 24 h

| Structure (SMILES) | Drug uptake (Triticum aestivum [1]) | Drug recovery (Triticum aestivum [2]) | Drug recovery (Triticum aestivum [3]) |
| --- | --- | --- | --- |
| C[C@H]1CCCC(=O)CCC/C=C/c2cc(O)cc(O)c2C(=O)O1 [ZEARALENONE] | 11 µg/kg | 32% | 89% |
| C[C@H]1CCCC(=O)CCC/C=C/c2cc(O[C@@H]3O[C@H](CO)[C@@H](O)[C@H](O)[C@H]3O)cc(O)c2C(=O)O1 [Zearalenone-4-beta-D-glucopyranoside] | 17 µg/kg | 67% | 69% |
